{"source": "patent US12728096B2", "about": "“Pharmaceutical composition comprising enzalutamide” (Synthon B.V., priority 2019, dated 2026)", "origin": "cited, not measured here", "key": {"[1]": {"conditions": "pH 1 to 11"}}}
{"smiles": "CNC(=O)c1ccc(N2C(=S)N(c3ccc(C#N)c(C(F)(F)F)c3)C(=O)C2(C)C)cc1F", "note": "[Enzalutamide, 4-[3-[4-cyano-3-(trifluoromethyl)phenyl]-5,5-dimethyl-4-oxo-2-sulfanylideneimidazolidin-1-yl]-2-fluoro-N-methylbenzamide]", "values": [{"measurement": "permeability (BCS)", "result": "high permeability"}, {"measurement": "solubility (BCS)", "result": "low solubility"}, {"measurement": "solubility in water", "setting": "[1]", "result": "practically insoluble"}]}
